Test results reported in US12258389B2, “Methods and compositions for inhibition of EGF/EGFR pathway in combination with tyrosine kinase inhibitors” (In3Bio Ltd., priority 2015, dated 2025).
Where two headings read alike, the source gives them in different places.

What was measured:
PC9 cells = assay: Sensitivity of parental PC9 cells to TKIs; type: cell-based, human
Source text: (§1) In the conduct of this study PC9-derived cell lines that are resistant to TKIs were utilized. […] They represent a model for the EGFR Mutated segment of the NSCLC patient population receiving first-line TKI treatment.
(§2) As described above, the PC9 cell line carries a 15 bp deletion in exon 19 of EGFR, making this cell line sensitive to TKI's. It represents a model for the EGFR Mutated segment of the NSCLC patient population receiving TKI treatment. As a part of this effort, PC9-derived cell lines resistant to TKIs were developed.

pYAP = assay: Western blot, phospho-YAP, PC9 cells; type: cell-based, human; settings: PC9, 24 h, gefitinib 0.5 μM, Ab1; Ctrl = 100
Description: (§3) In 5-day experiments, PC9 cells were not submitted to serum starvation but cultured with human serum.
(§4) A preliminary analysis was performed to test some of them: Notch3 cleaved (active form of Notch3), phosphor-YAP, Bmi1 and Hes1 (related to stem cells) and AXL (related to EMT transition). Also, PARP was investigated to determine if the antibodies induce apoptosis. Extracts of the PC9 cell line obtained in previous experiments were used. […] A not-so-significant down-regulation of Bmi1 was also observed.

AXL = assay: Western blot, AXL, PC9 cells; type: cell-based, human; settings: PC9, 24 h, gefitinib 0.5 μM, Ab1; Ctrl = 100
Description: as §3, §4

HES1 = assay: Western blot, Hes1 level, PC9 cells; type: cell-based, human; settings: PC9, 24 h, gefitinib 0.5 μM, Ab1; Ctrl = 100
Description: as §3, §4

Notch3 truncated = assay: Western blot, truncated (cleaved) Notch3, PC9 cells; type: cell-based, human; settings: PC9, 24 h, gefitinib 0.5 μM, Ab1; Ctrl = 100
Description: as §3, §4

PARP cleaved = assay: Western blot, cleaved (truncated) PARP, PC9 cells; type: cell-based, human; settings: PC9, 24 h, gefitinib 0.5 μM, Ab1 (FIG. 21)
Description: as §3, §4

Notch3 = assay: Western blot, Notch3, PC9 cells; type: cell-based, human; settings: PC9, 24 h, gefitinib 0.5 μM, Ab1; Ctrl = 100
Description: as §3, §4

Bmi1 = assay: Western blot, Bmi1 level, PC9 cells; type: cell-based, human; settings: PC9, 24 h, gefitinib 0.5 μM, Ab1; Ctrl = 100
Description: as §3, §4

p-ERK1/2 [1] = assay: Western blot, phosphorylated ERK1/2 normalised to total ERK1/2, PC9 cells; type: cell-based, human
Description: (§5) Experiment 1: In a typical standard experiment, five T-75 flasks of the cell line under study were cultured to approximately 70% confluence, washed twice with PBS and grown o/n in serum-free medium. The serum-starved cells were then washed again and treated as follows:
(§6) Treatment was for about 15 minutes.
(§7) Experiment 2: In a second experiment anti-EGF was tested only at 1 to 2 dilution. […] Treatment was prolonged to about 2 hours in this experiment.
(§8) Both EGF and anti-EGF antibodies, which used in this project were derived from an immunization study in monkeys that received 4 immunizations of the rEGF-rP64k conjugate CIMAvax-EGF vaccine formulated with Montanide adjuvant. The vaccine and resulting anti-EGF antibodies were provided by Bioven (Europe) Ltd, Cruikshank Building North, Aberdeen Biotechnology, Craibstone Aberdeen, U.K. Scotland. Antibodies for Western blotting were purchased from Santa Cruz Biotechnologies (Palo Alto, CA).
(§9) Experiment 3: In a third experiment anti-EGF was tested only at 1 to 2 dilution. […] Treatment was prolonged to about 2 hours in this experiment. […] Both EGF and anti-EGF were provided by Bioven. Antibodies for Western blotting were purchased from Santa Cruz Biotechnologies (Palo Alto, CA).
(§10) Subsequently, three kind of experiments were performed:
(§11) C. Non-Standard Conditions: In experiments “under non-standard conditions”, PC9 (4 flasks) cells were not submitted to serum starvation and activation with fetal bovine serum instead of human EGF was employed. They were washed with PBS (×2), drugs were added in medium containing 10% FBS and incubated for 2 hours.

PARP = assay: Western blot, total PARP, PC9 cells; type: cell-based, human; settings: PC9, 24 h, gefitinib 0.5 μM, Ab1; Ctrl = 100
Description: as §3, §4

pSTAT-3 [2] = assay: Western blot, phosphorylated STAT3 normalised to total STAT3, PC9 cells; type: cell-based, human
Description: as §5, §6, §7, §8, §9, §10, §11

p-Akt [3] = assay: Western blot, phosphorylated Akt normalised to total Akt, PC9 cells; type: cell-based, human
Description: as §5, §6, §7, §8, §9, §10, §11

pSTAT-3 [4] = assay: Western blot, phosphorylated STAT3, PC9-GR4 (T790M positive) cells; type: cell-based, human; settings: AZD9291 0.2 μM, Ab1, Ctrl = 100
Source text: as §2, §3

p-ERK1/2 [5] = assay: Western blot, phosphorylated ERK1/2, PC9-GR4 (T790M positive) cells; type: cell-based, human; settings: AZD9291 0.2 μM, Ab1, Ctrl = 100
Source text: as §2, §3

p-EGFR [6] = assay: Western blot, phosphorylated EGFR, PC9-GR4 (T790M positive) cells; type: cell-based, human; settings: AZD9291 0.2 μM, Ab1, Ctrl = 100
Source text: as §2, §3

p-EGFR [7] = assay: Western blot, phosphorylated EGFR normalised to total EGFR, PC9 cells; type: cell-based, human
Description: as §5, §6, §7, §8, §9, §10
C. […]

PC9-GR1 and GR4 = assay: Sensitivity of T790M PC9-derived lines; type: cell-based, human
Source text: as §1, with “treatment. […]. These two cell lines (PC9-GR1 and GR4) are sensitive to the new generation EGFR TKI developed by Astra Zeneca (AZD9291) that can also bind to the T790M EGFR mutated protein.” for “treatment.”
as §2, with “developed. […] […]. These two cell lines (PC9-GR1 and GR4) are sensitive to the new generation EGFR TKI developed by Astra Zeneca (AZD9291) that can also bind to the T790M EGFR mutated protein.” for “developed.”

p-Akt [8] = assay: Western blot, phosphorylated Akt, PC9-GR4 (T790M positive) cells; type: cell-based, human; settings: AZD9291 0.2 μM, Ab1, Ctrl = 100
Source text: as §2, §3

PC9-ER and GR1 to GR5 = assay: cells; type: cell-based; settings: Homo sapiens, PC-9/ER; PC9-ER and GR1 to GR5 resistant lines
Source text: as §1, §2

[9] = PC9, 24 h serum starvation and drug treatment, gefitinib 0.5 μM, Ab 1/2, Control = 100
[10] = PC9, serum-starved, EGF, 15 min, gefitinib 40 nM, antibody 1/20 to 1/5 (FIG. 6)
[11] = PC9, 2 h, AZD9291 0.2 μM, Ab1, Ctrl = 100
[12] = PC9, 0% FBS, EGF-induced, 2 h, erlotinib 1 μM, Ab 1/2 dilution, Control = 100
[13] = PC9, 2 h, erlotinib 1 μM, anti-EGF, nonstandard conditions and serum starvation (FIG. 13, 14)

COc1cc2c(Oc3ccc(NC(=O)C4(C(=O)Nc5ccc(F)cc5)CC4)cc3F)ccnc2cc1OCCCN1CCOCC1 [foretinib]
IC50 (PC9 cells): in the nM range

COc1cc2ncnc(Nc3ccc(F)c(Cl)c3)c2cc1OCCCN1CCOCC1 [Gefitinib]
p YAP (Ser 397) (pYAP): 137.6
AXL (AXL): 135.4
Hes1 (HES1): 86.5
Notch3 truncated (Notch3 truncated): 98.9
PARP cleavage (PARP cleaved): able to induce it
Notch3 (Notch3): 120.8
Bmi1 (Bmi1): 100.1
effect on Erk activation (p-ERK1/2 [1]): inactivated
effect on Erk phosphorylation (p-ERK1/2 [1]): inhibited
pERK (p-ERK1/2 [1]): 8.1
PARP total (PARP): 110
pSTAT3 (pSTAT-3 [2]; [9]): 569.2
effect on STAT-3 activation (pSTAT-3 [2]; PC9, nonstandard conditions (not serum-starved, 10% FBS, no EGF), 2 h, gefitinib 0.5 μM, anti-EGF 1/2 (FIG. 8)): activated
effect on STAT3 activation (pSTAT-3 [2]; PC9, serum starvation, EGF induction, 2 h, gefitinib 0.5 μM, anti-EGF 1/2 (FIG. 2, FIG. 9)): activated
effect on STAT3 phosphorylation (pSTAT-3 [2]; [10]): activated
pAkt (p-Akt [3]; [9]): 72.6
effect on Akt phosphorylation (p-Akt [3]; [10]): inhibited

C=CC(=O)Nc1cc(Nc2nccc(-c3cn(C)c4ccccc34)n2)c(OC)cc1N(C)CCN(C)C [AZD9291]
pSTAT3 (pSTAT-3 [4]; PC9-GR4, 2 h): 60
STAT3 (pSTAT-3 [4]; PC9-GR4, 24 h): 847.5
pErk ½ (p-ERK1/2 [5]; PC9-GR4, 2 h): 53.6
Erk ½ (p-ERK1/2 [5]; PC9-GR4, 24 h): 20.5
IC50 (PC9 cells): in the nM range
pEGFR (p-EGFR [6]; PC9-GR4, 2 h): 2.5
EGFR (p-EGFR [6]; PC9-GR4, 24 h): 138.6
pEGFR (p-EGFR [7]; [11]): 76.3
sensitivity of cell lines (PC9-GR1 and GR4): sensitive
pErk ½ (p-ERK1/2 [1]; [11]): 3.7
pSTAT3 (pSTAT-3 [2]; [11]): 146.6
pAkt (p-Akt [3]; [11]): 2.9
pAkt (p-Akt [8]; PC9-GR4, 2 h): 42.7
Akt (p-Akt [8]; PC9-GR4, 24 h): 26.8

C#Cc1cccc(Nc2ncnc3cc(OCCOC)c(OCCOC)cc23)c1 [Erlotinib, N-(3-ethynylphenyl)-6,7-bis(2-methoxyethoxy)-4-quinazolinamine]
EGFR (p-EGFR [7]; [12]): 14.3
ERK (p-ERK1/2 [1]; [12]): 0
effect on Erk activation (p-ERK1/2 [1]; [13]): inactivated
STAT-3 (pSTAT-3 [2]; [12]): 130
effect on STAT3 activation (pSTAT-3 [2]; [13]): activated
IC50 (PC9-ER and GR1 to GR5): 5 to 10 µM
Akt (p-Akt [3]; [12]): 0
